In paper PMC8654833 (Scientific Reports, 2021):

Legend:
5-HT7 = target: T1, 5-HT7 (Homo sapiens, UniProt P34969); assay: Single-concentration radioligand binding screen (Eurofins Cerep), 5-HT7; details: single concentration 10 µM screen, [3H]LSD
T1 construct: Euroscreen FAST (contract assay)
Procedure: (§1) This study included binding assays (87 GPCR targets), measured as % of binding inhibition of a reference radioligand, as well as uptake and enzyme assays (19 targets), the latter measured as % inhibition of control enzyme activity. […] It was performed by radioligand binding competition by Euroscreen (Euroscreen FAST, Belgium). The following nanomolar concentrations were tested in duplicate: 0.001, 0.01, 0.1, 1, 10, 100, 1000, 10,000. Dose–response curves were fitted with the least squares method. IC50 results are shown as pIC50, corresponding to the negative log10 of IC50 in molar.

5-HT2C = target: T2, 5-HT2C (Homo sapiens, UniProt P28335); assay: Single-concentration radioligand binding screen (Eurofins Cerep), 5-HT2C; details: single concentration 10 µM screen, [3H]mesulergine
T2 construct: Euroscreen FAST (contract assay)
T2 sequence (P28335 33-458): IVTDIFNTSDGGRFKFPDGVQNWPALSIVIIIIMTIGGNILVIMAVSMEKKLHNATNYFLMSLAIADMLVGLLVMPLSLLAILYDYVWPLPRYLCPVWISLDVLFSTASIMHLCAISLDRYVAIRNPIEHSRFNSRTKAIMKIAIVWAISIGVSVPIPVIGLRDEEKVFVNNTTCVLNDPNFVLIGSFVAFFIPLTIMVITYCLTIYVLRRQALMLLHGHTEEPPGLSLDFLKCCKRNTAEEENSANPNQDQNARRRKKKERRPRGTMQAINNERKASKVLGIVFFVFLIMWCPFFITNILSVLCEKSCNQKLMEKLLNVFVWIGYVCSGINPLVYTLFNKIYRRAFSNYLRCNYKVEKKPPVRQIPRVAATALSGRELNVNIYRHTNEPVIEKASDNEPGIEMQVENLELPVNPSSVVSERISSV
Procedure: as §1

5-HT5A = target: T3, 5-HT5A (Homo sapiens, UniProt P47898); assay: Single-concentration radioligand binding screen (Eurofins Cerep), 5-HT5A; details: single concentration 10 µM screen, [3H]LSD
T3 construct: Euroscreen FAST (contract assay)
Procedure: as §1

Ca^2+ channel, vs = assay: Single-concentration radioligand binding screen (Eurofins Cerep), Ca2+ channel verapamil site; details: single concentration 10 µM screen, [3H]D888
Procedure: as §1

NET = target: T4, NET (Homo sapiens, UniProt P23975); assay: Radioligand binding competition dose-response (Euroscreen), norepinephrine transporter; details: dose-response study, maximal concentration 10 µM, 3H]nisoxetine
T4 construct: Euroscreen FAST (contract assay)
Procedure: as §1

[1] = Stability in vehicle at 37 °C by LC-MS; type: physicochemical; details: vehicle (20% DMSO in distilled water), data not shown
[2] = tested on: microglia related genes in the cervical and thoracic spinal cord; assay: RT-qPCR of microglia related genes in spinal cord; type: in vivo, Sod1^G86R mice
Procedure: We then sought to characterize whether BW modulated microglial physiology and used RT-qPCR to measure microglia related genes in the cervical and thoracic spinal cord of animals treated with either vehicle or 3 mg/kg/d of BW. […] We next wanted to see if these changes in gene expression were accompanied by modification of microglial activation in spinal cord of treated mice. Iba1 + cells were classified in 4 different activation states (resting, activated, phagocytic or dystrophic).
Total RNA was extracted from the cervical and thoracic spinal cord of end stage mice using TRIzol (Invitrogen). Reverse transcription was performed using 1 μg of RNA and the iScript cDNA synthesis kit (BioRad). IQ SYBR green Supermix (BioRad) was used to perform RT-PCR. Data were normalized with GeNorm software (RRID: SCR_006763)[25]. Three reporter genes were used for normalization: POL2, TBP and Actin. Oligonucleotide primers are provided in Supplementary Table S1.

5-HT2B [3] = target: T5, 5-HT2B (Homo sapiens, UniProt P41595); details: dose-response study, maximal concentration 10 µM, [3H]mesulergine
5-HT2B [4] = target: T5, 5-HT2B; assay: Single-concentration radioligand binding screen (Eurofins Cerep), 5-HT2B; design: Euroscreen FAST (contract assay); details: single concentration 10 µM screen, [3H]mesulergine

T5 sequence (P41595 whole entry, species assumed): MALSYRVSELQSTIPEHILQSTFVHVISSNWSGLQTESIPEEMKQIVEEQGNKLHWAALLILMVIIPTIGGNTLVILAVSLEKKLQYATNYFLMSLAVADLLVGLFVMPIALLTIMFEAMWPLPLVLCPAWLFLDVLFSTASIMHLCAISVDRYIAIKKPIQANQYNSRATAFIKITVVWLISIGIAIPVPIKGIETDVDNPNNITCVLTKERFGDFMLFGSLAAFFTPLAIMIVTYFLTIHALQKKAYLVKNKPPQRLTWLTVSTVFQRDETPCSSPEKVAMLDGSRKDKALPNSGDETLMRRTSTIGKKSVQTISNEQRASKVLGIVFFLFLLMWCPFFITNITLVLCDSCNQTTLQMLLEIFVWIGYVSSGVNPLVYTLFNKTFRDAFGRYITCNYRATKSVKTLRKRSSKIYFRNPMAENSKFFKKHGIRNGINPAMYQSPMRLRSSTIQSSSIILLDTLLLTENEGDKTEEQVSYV
T4 sequence (P23975 whole entry): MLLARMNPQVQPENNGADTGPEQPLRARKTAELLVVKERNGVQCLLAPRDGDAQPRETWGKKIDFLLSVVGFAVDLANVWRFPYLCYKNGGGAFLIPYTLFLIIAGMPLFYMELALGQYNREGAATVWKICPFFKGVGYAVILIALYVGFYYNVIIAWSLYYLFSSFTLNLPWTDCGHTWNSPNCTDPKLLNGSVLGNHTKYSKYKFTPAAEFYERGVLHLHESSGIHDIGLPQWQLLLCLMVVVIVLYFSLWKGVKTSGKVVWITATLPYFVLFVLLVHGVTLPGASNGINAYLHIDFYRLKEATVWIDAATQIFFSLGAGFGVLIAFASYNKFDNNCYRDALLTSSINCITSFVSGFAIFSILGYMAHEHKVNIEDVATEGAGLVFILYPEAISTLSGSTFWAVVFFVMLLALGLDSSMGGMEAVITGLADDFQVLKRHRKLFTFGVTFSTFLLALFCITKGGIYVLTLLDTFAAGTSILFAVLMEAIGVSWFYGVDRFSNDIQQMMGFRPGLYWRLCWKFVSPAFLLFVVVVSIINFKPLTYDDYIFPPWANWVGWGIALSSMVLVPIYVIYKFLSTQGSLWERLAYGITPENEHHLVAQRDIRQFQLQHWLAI
T3 sequence (P47898 whole entry, species assumed): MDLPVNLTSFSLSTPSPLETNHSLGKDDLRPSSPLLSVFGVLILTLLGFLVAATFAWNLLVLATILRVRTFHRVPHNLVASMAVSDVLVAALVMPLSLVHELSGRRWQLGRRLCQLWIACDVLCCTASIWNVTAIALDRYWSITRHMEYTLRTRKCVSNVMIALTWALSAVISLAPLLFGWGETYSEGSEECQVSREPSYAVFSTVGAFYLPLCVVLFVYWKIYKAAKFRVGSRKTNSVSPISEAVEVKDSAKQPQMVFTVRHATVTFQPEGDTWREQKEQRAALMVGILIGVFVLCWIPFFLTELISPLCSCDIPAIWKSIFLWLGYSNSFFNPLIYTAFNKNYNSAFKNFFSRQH
T1 sequence (P34969 whole entry, species assumed): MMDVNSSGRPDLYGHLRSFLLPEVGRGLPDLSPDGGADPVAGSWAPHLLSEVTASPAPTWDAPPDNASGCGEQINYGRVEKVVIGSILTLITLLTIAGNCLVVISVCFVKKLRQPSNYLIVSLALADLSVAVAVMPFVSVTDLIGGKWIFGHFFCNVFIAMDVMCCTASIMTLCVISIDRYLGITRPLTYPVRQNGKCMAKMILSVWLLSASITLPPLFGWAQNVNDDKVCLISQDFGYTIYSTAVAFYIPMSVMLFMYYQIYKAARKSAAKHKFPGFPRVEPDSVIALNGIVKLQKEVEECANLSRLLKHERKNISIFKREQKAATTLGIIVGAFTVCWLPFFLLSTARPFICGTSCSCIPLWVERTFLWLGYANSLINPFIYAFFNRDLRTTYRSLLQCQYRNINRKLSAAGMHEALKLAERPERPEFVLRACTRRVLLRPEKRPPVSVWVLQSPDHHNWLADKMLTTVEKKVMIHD

Structure (SMILES): CC(N)Cc1c[nH]c2ccc(OCc3cccs3)cc12 (stereo not shown) [BW, 1-[5-(thiophen-2-ylmethoxy)-1H-indol-3-yl]propan-2-amine]
- inhibition at 10 µM (5-HT7): 89.5%
- inhibition at 10 µM (5-HT2C): 97.8%
- inhibition at 10 µM (5-HT5A): 54.6%
- %Binding inhibition at 10 µM (Ca^2+ channel, vs): 75.5%
- inhibition at 10 µM (NET): 74.4%
- stable at 37 °C in vehicle [1]: at least 2 months
- Hexb upregulation in Sod1^G86R mice ([2]; 3 mg/kg/d, spinal cord RT-qPCR): partially prevented
- disease-associated upregulation of Nox2 ([2]; 3 mg/kg/d, spinal cord RT-qPCR): partially prevented
- disease-associated upregulation of Tyrobp (DAP12) ([2]; 3 mg/kg/d, spinal cord RT-qPCR): partially prevented
- upregulation of disease-associated microglia marker Apoe ([2]; 3 mg/kg/d, spinal cord RT-qPCR): blunted the upregulation
- upregulation of disease-associated microglia marker Cd9 ([2]; 3 mg/kg/d, spinal cord RT-qPCR): blunted the upregulation
- upregulation of disease-associated microglia marker Cst7 ([2]; 3 mg/kg/d, spinal cord RT-qPCR): blunted the upregulation
- upregulation of disease-associated microglia marker Lpl ([2]; 3 mg/kg/d, spinal cord RT-qPCR): blunted the upregulation
- Tmem119 expression ([2]; Sod1^G86R mice with BW treatment): downregulated
- %Binding inhibition at 10 µM (5-HT2B [3]): 103.54%
- inhibition at 10 µM (5-HT2B [4]): 99%
